What all share (type): functional
Holding throughout (conditions): for zone of inhibition at 5000 µg/mL: read-out: DIZ

Experiment [1] deals with Bacillus subtilis. Nature of the experiment: Antibacterial activity against gram-positive Bacillus subtilis at 5 mg/ml after 24 hrs by well diffusion method. Background: A growth-free zone around the sample is the usual read-out of agar diffusion tests.
The test system of experiment [2] is Bacillus mycoides. Put plainly: Antibacterial activity against gram-positive Bacillus mycoides at 5 mg/ml after 24 hrs by well diffusion method.
Experiment [3] has as its system Escherichia coli. Put plainly: Antibacterial activity against gram-negative Escherichia coli at 5 mg/ml after 24 hrs by well diffusion method.
The test system of experiment [4] is Pseudomonas aeruginosa. Nature of the experiment: Antibacterial activity against gram-negative Pseudomonas aeruginosa at 5 mg/ml after 24 hrs by well diffusion method.

Each structure is given as a SMILES string. Activity calls are given as the source filed them. The calls are words filed in the database; no cut-off is given here.

As for `Cn1c(=O)c2c(-c3ccc(Cl)cc3)c[nH]c2n(C)c1=O`, the “diameter of the inhibition zone (DIZ)” value in experiment [1], in experiment [2], in experiment [3] and in experiment [4] was “inactive” in each case.
`Cn1c(=O)c2c(-c3ccccc3)c[nH]c2n(C)c1=O`: the “diameter of the inhibition zone (DIZ)” value in experiment [1], in experiment [2], in experiment [3] and in experiment [4] was “inactive” throughout.
Take `Cn1c(=O)c2c(-c3cccc4ccccc34)c[nH]c2n(C)c1=O`: the zone of inhibition at 5000 µg/mL turned out to be 18 mm in experiment [1], 17 mm in experiment [2], 14 mm in experiment [3] and 20 mm in experiment [4].
For `CN(C)c1ccc(-c2c[nH]c3c2c(=O)n(C)c(=O)n3C)cc1` the same measures were 15 mm, 12 mm, 11 mm and 20 mm.
As for `COc1ccc(-c2c[nH]c3c2c(=O)n(C)c(=O)n3C)cc1`, the “diameter of the inhibition zone (DIZ)” value in experiment [1], in experiment [2], in experiment [3] and in experiment [4] was “inactive” each time.
Turning to `Cn1c(=O)c2c(-c3ccco3)c[nH]c2n(C)c1=O`, the zone of inhibition at 5000 µg/mL was found to be 20 mm in experiment [1], 12 mm in experiment [3] and 18 mm in experiment [4]. Further, the “diameter of the inhibition zone (DIZ)” value in experiment [2] is “inactive”.
As to `Cn1c(=O)c2c(-c3cccs3)c[nH]c2n(C)c1=O`, the zone of inhibition at 5000 µg/mL in experiment [1] was 20 mm; in experiment [2] it was 13 mm; in experiment [3], 13 mm; in experiment [4], 20 mm.
Turning to `Cn1c(=O)c2c(-c3ccc(O)cc3)c[nH]c2n(C)c1=O`, the “diameter of the inhibition zone (DIZ)” value in experiment [1], in experiment [2], in experiment [3] and in experiment [4] was “inactive” in each case.
On to `Cn1c(=O)c2c(-c3c[nH]c4ccccc34)c[nH]c2n(C)c1=O`, for which the zone of inhibition at 5000 µg/mL came out at 20 mm in experiment [1], 12 mm in experiment [3] and 20 mm in experiment [4]. The “diameter of the inhibition zone (DIZ)” value in experiment [2] is “inactive”.
In the case of `Cc1ccc(-c2c[nH]c3c2c(=O)n(C)c(=O)n3C)cc1`, the zone of inhibition at 5000 µg/mL in experiment [1] was found to be 20 mm; in experiment [2] it was 12 mm; in experiment [3], 15 mm; in experiment [4] it was 20 mm.

Source of the values: ChEMBL document CHEMBL3751742, “A one pot, two-step synthesis of 5-arylpyrrolo[2,3-d]pyrimidines and screening of their preliminary antibacterial properties” (2016).
